Assays:
Assay type in all cases: cell-based
[1] = target: proteins of HEK293T cells transiently overexpressing caspase-6 (Homo sapiens, UniProt P12268); conditions: exp_ref Probe; protein IMPDH2 (P12268); analysis C6
[2] = target: proteins of HEK293T cells transiently overexpressing caspase-6 (Homo sapiens, UniProt P38919); conditions: exp_ref Probe; protein EIF4A3 (P38919); analysis C6
[3] = target: proteins of HEK293T cells transiently overexpressing caspase-6 (Homo sapiens, UniProt O75643); conditions: exp_ref Probe; protein SNRNP200 (O75643); analysis C6
Chain of proteins of HEK293T cells transiently overexpressing caspase-6 (Homo sapiens, UniProt O75643) (O75643 whole entry): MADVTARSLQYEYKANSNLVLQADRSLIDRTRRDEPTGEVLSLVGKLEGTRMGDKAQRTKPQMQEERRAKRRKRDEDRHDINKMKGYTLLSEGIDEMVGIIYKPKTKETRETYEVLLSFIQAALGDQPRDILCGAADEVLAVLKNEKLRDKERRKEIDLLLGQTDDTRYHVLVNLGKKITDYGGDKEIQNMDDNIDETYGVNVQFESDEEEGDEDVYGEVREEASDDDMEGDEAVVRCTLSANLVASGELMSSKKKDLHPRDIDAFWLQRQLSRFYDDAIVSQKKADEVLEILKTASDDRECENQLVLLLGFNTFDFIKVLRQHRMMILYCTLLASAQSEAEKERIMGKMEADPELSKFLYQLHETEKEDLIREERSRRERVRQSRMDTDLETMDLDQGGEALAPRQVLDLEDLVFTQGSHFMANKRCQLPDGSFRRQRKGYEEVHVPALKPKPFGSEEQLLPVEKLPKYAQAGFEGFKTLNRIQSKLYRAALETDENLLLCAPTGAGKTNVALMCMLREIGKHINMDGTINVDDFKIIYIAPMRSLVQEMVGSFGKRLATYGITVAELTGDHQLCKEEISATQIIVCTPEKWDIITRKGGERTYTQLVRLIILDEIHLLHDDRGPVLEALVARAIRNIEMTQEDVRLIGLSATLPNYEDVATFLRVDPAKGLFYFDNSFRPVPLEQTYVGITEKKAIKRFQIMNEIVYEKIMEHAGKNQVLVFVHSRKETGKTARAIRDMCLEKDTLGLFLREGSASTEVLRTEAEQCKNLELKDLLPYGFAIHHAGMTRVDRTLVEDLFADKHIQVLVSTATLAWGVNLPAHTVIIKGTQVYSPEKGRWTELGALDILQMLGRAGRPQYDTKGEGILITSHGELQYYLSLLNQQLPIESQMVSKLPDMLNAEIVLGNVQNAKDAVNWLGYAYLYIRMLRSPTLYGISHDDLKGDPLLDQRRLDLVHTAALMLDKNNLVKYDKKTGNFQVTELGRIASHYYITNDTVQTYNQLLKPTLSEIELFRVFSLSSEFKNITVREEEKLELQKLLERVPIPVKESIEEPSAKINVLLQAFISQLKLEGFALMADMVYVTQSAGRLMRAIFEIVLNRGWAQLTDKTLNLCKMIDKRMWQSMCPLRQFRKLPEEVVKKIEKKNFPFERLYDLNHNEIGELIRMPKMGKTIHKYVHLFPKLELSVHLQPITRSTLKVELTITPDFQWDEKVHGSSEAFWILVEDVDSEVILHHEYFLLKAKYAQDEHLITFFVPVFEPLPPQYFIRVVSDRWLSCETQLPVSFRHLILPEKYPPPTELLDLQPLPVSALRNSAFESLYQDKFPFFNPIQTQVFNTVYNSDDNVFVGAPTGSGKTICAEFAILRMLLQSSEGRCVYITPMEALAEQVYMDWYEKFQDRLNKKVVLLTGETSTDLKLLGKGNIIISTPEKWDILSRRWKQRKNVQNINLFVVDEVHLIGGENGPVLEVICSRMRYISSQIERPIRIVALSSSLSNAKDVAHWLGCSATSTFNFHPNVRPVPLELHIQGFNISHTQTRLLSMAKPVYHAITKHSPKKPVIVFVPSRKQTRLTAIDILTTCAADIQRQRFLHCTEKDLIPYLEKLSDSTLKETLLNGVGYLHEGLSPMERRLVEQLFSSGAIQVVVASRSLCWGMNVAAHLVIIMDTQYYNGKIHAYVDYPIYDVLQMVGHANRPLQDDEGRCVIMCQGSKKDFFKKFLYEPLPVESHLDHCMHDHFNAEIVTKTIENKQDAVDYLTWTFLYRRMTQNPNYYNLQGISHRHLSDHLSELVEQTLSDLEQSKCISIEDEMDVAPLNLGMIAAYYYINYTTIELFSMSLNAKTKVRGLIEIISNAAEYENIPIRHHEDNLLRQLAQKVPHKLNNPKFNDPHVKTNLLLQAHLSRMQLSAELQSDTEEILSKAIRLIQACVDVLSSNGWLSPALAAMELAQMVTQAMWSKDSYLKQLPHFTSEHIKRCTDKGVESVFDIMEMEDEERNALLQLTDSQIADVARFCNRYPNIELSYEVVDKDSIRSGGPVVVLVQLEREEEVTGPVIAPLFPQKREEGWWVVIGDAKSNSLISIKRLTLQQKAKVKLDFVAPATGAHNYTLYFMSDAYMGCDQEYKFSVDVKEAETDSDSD

[4] = target: proteins of HEK293T cells transiently overexpressing caspase-6 (Homo sapiens, UniProt O43707); conditions: protein ACTN4 (O43707)
Chain of proteins of HEK293T cells transiently overexpressing caspase-6 (Homo sapiens, UniProt O43707) (O43707 whole entry): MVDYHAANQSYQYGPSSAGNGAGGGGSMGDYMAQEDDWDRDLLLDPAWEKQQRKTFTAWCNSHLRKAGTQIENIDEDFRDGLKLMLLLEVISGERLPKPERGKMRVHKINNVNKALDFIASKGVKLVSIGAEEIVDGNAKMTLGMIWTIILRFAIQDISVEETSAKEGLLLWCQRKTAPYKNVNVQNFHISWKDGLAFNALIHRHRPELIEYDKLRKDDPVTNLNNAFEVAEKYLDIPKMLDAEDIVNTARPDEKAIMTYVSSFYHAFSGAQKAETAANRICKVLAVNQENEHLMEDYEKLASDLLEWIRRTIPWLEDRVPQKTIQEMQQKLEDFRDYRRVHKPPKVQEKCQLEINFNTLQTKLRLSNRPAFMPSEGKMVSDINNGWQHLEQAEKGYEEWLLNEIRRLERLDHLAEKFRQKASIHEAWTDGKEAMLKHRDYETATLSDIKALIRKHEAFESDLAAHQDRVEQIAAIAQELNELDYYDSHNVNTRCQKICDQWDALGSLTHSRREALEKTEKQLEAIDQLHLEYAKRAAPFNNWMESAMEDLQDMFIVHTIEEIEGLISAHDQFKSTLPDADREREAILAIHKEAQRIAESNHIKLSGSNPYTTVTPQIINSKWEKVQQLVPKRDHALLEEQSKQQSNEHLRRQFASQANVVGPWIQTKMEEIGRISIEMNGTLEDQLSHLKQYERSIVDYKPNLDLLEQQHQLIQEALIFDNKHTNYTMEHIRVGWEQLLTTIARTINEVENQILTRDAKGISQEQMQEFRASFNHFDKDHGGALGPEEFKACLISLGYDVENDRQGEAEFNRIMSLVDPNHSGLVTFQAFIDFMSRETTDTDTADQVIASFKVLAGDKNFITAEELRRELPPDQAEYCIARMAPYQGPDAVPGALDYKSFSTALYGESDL

[5] = target: proteins of HEK293T cells transiently overexpressing caspase-6 (Homo sapiens, UniProt Q96SB4); conditions: protein SRPK1 (Q96SB4); exp_ref Probe; analysis C6
[6] = target: proteins of HEK293T cells transiently overexpressing caspase-6 (Homo sapiens, UniProt Q99497); conditions: exp_ref Probe; protein PARK7 (Q99497); analysis C6
Chain of proteins of HEK293T cells transiently overexpressing caspase-6 (Homo sapiens, UniProt Q99497) (Q99497 whole entry): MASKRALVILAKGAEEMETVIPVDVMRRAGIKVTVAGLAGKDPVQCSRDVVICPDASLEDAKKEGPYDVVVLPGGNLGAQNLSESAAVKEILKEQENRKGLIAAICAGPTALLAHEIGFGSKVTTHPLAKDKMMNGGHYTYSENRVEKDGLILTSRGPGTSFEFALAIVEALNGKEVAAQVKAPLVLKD

[7] = target: proteins of HEK293T cells transiently overexpressing caspase-6 (Homo sapiens, UniProt Q99873); conditions: exp_ref Probe; protein PRMT1 (Q99873); analysis C6
[8] = target: proteins of HEK293T cells transiently overexpressing caspase-6 (Homo sapiens, UniProt P39023); conditions: exp_ref Probe; protein RPL3 (P39023); analysis C6
[9] = target: proteins of HEK293T cells transiently overexpressing caspase-6 (Homo sapiens, UniProt P62241); conditions: exp_ref Probe; protein RPS8 (P62241); analysis C6
[10] = target: proteins of HEK293T cells transiently overexpressing caspase-6 (Homo sapiens, UniProt P13645); conditions: Probe; protein KRT10 P13645
Chain of proteins of HEK293T cells transiently overexpressing caspase-6 (Homo sapiens, UniProt P13645) (P13645 whole entry): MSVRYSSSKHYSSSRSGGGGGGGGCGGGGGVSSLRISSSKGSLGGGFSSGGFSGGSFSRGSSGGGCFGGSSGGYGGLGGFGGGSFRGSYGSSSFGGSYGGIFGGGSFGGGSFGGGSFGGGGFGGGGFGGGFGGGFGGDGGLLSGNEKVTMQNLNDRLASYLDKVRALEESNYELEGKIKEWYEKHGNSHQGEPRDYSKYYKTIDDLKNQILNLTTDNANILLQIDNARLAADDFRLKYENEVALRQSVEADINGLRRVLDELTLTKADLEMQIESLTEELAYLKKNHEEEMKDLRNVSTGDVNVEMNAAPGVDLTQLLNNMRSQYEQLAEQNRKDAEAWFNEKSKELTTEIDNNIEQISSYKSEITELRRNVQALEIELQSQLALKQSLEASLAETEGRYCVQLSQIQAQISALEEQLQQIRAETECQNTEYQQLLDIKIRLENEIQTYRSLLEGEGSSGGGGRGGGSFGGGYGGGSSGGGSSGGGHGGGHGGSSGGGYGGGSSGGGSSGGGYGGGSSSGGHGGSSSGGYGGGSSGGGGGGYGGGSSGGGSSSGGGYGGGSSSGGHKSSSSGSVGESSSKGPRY

[11] = target: proteins of HEK293T cells transiently overexpressing caspase-6 (Homo sapiens, UniProt Q86YZ3); conditions: Probe; protein HRNR Q86YZ3
[12] = target: proteins of HEK293T cells transiently overexpressing caspase-6 (Homo sapiens, UniProt P78527); conditions: exp_ref Probe; protein PRKDC (P78527); analysis C6
[13] = target: proteins of HEK293T cells transiently overexpressing caspase-6 (Homo sapiens, UniProt P38646); conditions: protein HSPA9 (P38646)
Chain of proteins of HEK293T cells transiently overexpressing caspase-6 (Homo sapiens, UniProt P38646) (P38646 47-679): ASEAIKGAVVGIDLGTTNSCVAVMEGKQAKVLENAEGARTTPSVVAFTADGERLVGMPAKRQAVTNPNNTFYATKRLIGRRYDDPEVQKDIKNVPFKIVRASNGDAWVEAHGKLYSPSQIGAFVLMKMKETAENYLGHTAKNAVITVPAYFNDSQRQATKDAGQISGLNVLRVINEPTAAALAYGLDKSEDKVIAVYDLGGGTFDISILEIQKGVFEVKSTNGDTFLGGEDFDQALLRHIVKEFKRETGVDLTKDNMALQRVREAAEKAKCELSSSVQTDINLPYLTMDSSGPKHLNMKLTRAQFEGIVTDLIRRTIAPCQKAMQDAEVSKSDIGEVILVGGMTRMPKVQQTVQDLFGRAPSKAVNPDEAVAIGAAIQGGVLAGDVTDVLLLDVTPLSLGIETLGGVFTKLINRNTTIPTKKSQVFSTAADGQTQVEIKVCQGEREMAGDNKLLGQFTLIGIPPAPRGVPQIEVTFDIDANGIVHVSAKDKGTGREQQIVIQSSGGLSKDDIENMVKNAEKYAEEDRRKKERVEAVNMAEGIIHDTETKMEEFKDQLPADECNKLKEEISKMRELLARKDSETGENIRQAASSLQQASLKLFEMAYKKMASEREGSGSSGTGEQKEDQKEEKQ

[14] = target: proteins of HEK293T cells transiently overexpressing caspase-6 (Homo sapiens, UniProt Q14247); conditions: exp_ref Probe; protein CTTN (Q14247); analysis C6
[15] = target: T1, proteins of HEK293T cells transiently overexpressing caspase-6 (Homo sapiens, UniProt O60506); conditions: exp_ref Probe; protein SYNCRIP (O60506); analysis C6
T1 sequence (O60506 1-623): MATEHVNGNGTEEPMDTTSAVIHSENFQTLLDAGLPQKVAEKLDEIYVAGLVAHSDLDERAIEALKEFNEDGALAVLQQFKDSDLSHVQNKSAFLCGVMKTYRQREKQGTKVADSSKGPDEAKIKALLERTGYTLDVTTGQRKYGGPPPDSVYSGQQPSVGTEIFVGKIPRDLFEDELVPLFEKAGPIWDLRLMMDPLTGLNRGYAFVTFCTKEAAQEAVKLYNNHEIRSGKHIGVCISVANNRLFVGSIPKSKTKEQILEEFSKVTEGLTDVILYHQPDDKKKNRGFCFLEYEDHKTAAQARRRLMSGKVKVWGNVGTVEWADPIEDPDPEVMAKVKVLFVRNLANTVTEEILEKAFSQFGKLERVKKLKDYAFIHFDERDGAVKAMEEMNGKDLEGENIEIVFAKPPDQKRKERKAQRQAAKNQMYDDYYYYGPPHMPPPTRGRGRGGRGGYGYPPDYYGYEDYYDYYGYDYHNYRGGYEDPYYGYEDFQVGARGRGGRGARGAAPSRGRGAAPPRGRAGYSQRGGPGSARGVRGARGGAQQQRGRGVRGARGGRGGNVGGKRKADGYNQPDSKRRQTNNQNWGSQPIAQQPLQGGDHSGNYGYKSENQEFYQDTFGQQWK

[16] = target: T2, proteins of HEK293T cells transiently overexpressing caspase-6 (Homo sapiens, UniProt Q00325); conditions: protein SLC25A3 (Q00325)
T2 sequence (Q00325 50-362): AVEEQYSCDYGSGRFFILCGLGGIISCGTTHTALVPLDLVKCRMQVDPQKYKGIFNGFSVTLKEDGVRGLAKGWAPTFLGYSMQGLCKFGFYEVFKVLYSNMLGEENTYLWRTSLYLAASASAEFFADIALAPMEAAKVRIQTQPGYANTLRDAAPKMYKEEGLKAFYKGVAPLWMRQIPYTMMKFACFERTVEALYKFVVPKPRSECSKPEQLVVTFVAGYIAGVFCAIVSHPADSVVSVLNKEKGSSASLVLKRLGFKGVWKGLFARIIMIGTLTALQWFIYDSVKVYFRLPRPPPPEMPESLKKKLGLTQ

[17] = target: proteins of HEK293T cells transiently overexpressing caspase-6 (Homo sapiens, UniProt P09429); conditions: Probe; protein HMGB1 P09429
Chain of proteins of HEK293T cells transiently overexpressing caspase-6 (Homo sapiens, UniProt P09429) (P09429 whole entry): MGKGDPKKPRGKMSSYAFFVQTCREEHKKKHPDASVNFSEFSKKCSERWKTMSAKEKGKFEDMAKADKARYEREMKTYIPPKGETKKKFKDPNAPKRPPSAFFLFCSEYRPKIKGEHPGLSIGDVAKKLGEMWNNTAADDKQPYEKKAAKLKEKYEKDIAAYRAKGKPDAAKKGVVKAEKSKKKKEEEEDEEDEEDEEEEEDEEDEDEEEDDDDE

[18] = target: proteins of HEK293T cells transiently overexpressing caspase-6 (Homo sapiens, UniProt Q9BVP2); conditions: exp_ref Probe; protein GNL3 (Q9BVP2); analysis C6
[19] = target: proteins of HEK293T cells transiently overexpressing caspase-6 (Homo sapiens, UniProt Q8IWS0); conditions: exp_ref Probe; protein PHF6 (Q8IWS0); analysis C6
Chain of proteins of HEK293T cells transiently overexpressing caspase-6 (Homo sapiens, UniProt Q8IWS0) (Q8IWS0 whole entry): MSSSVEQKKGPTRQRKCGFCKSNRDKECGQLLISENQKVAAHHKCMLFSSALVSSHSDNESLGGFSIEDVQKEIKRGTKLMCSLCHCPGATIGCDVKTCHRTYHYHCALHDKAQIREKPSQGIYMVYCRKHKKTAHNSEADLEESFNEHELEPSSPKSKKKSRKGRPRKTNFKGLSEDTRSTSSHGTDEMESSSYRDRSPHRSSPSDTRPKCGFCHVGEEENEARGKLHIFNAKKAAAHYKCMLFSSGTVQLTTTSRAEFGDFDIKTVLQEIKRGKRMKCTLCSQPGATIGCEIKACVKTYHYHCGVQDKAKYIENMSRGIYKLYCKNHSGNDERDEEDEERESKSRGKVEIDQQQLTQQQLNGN

Compound C#CCOc1ccc([C@@H]2C[C@@H](C(=O)Nc3ccc(OC(F)(F)F)cc3)CN(S(=O)(=O)C=C)C2)cc1 (relative stereo) [13-t] has an enrich.exp.med [1] of 0.7134, an enrich.exp.med [2] of 0.7561 and an enrich.exp.med [3] of -0.0557. The enrich.exp.med ([4]; exp_ref Probe, analysis C6) was 0.6607, the enrich.exp.med.lin [4] was 1.581 and the enrich.exp.med.log2 [4] was 0.6607. The enrich.exp.med [5] was 1.262, the enrich.exp.med [6] was 0.478 and the enrich.exp.med [7] was -0.1105. For the same compound, the enrich.exp.med [8] was -0.06221, the enrich.exp.med [9] was 0.3889 and the enrich.exp.med [10] was -7.844. For the same compound, the enrich.exp.med [11] was -8.887, the enrich.exp.med [12] was 0.5475 and the enrich.exp.med ([13]; exp_ref Probe, analysis C6) was 0.7965. It also gave an enrich.exp.med.lin [13] of 1.737, an enrich.exp.med.log2 [13] of 0.7965 and an enrich.exp.med [14] of -0.3871. For the same compound, the enrich.exp.med [15] was 0.8584, the enrich.exp.med ([16]; exp_ref Probe, analysis C6) was 0.6055 and the enrich.exp.med.lin [16] was 1.522. The enrich.exp.med.log2 [16] was 0.6055, the enrich.exp.med [17] was -1.399 and the enrich.exp.med [18] was 0.541. It also gave an enrich.exp.med [19] of 1.065.
